Assay results published in ChEMBL document CHEMBL3508140 (2016).

Key:
[1] = Increase in serum total cholesterol level following intravenous idarubicin at 0.3 mg.Kg-1 per week in rat; assay type: toxicity, organism-based, SD; design: dose 0.3 mg.Kg-1, dosed compound id 2.46809e+06, dosed compound name Idarubicin, dose level Low, gender Mixed, regimen Once per week, route intravenous, sampling time 8-22 Week, study doses 0/0.3/0.6/1 mg.Kg-1; details: in vivo
[2] = Mortality occurred following intravenous idarubicin at 0.6 mg.Kg-1 per week in rat; assay type: toxicity, organism-based, SD; design: dose 0.6 mg.Kg-1, dosed compound id 2.46809e+06, dosed compound name Idarubicin, dose level Intermediate, gender Mixed, regimen Once per week, route intravenous, sampling time 13 Week, study doses 0/0.3/0.6/1 mg.Kg-1; details: in vivo
[3] = Incidence of leukocyturia following intravenous idarubicin at 0.3 mg.Kg-1 per week in rat; assay type: toxicity, organism-based, SD; design: dose 0.3 mg.Kg-1, dosed compound id 2.46809e+06, dosed compound name Idarubicin, dose level Low, gender Mixed, regimen Once per week, route intravenous, sampling time 36 Week, study doses 0/0.3/0.6/1 mg.Kg-1; details: in vivo
[4] = Plasma clearance of 4-dem-daunorubicin following intravenous 4-dem-daunorubicin at 1.0 mg.Kg-1 dose in dog; assay type: ADME, organism-based, Canis lupus familiaris; design: dose 1 mg.Kg-1, dosed compound id 2.46809e+06, dosed compound name Idarubicin, route intravenous; details: Beagle, read-out: Clp
[5] = (§1) Decrease in leukocytes observed following intravenous idarubicin at 0.3 mg.Kg-1 per week in rat; assay type: toxicity, organism-based, SD, Blood; design: dosed compound id 2.46809e+06, dosed compound name Idarubicin, dose level Low, gender Mixed, route intravenous, sampling time 4 Week, study doses 0/0.3/0.6/1 mg.Kg-1; details: in vivo
[6] = Volume of distribution of 4-dem-daunorubicin following intravenous 4-dem-daunorubicin at 1.0 mg.Kg-1 dose in dog; assay type: ADME, organism-based, Canis lupus familiaris; design: dose 1 mg.Kg-1, dosed compound id 2.46809e+06, dosed compound name Idarubicin, route intravenous; details: Beagle, plasma
[7] = Incidence of persistent proteinuria following intravenous idarubicin at 0.3 mg.Kg-1 per week in rat; assay type: toxicity, organism-based, SD; design: dose 0.3 mg.Kg-1, dosed compound id 2.46809e+06, dosed compound name Idarubicin, dose level Low, gender Mixed, regimen Once per week, route intravenous, sampling time 36 Week, study doses 0/0.3/0.6/1 mg.Kg-1; details: in vivo
[8] = Increase in serum triglycerides level following intravenous idarubicin at 0.3 mg.Kg-1 per week in rat; assay type: toxicity, organism-based, SD; design: dose 0.3 mg.Kg-1, dosed compound id 2.46809e+06, dosed compound name Idarubicin, dose level Low, gender Mixed, regimen Once per week, route intravenous, sampling time 8-22 Week, study doses 0/0.3/0.6/1 mg.Kg-1; details: in vivo
[9] = Increase in serum total cholesterol level following intravenous idarubicin at 0.6 mg.Kg-1 per week in rat; assay type: toxicity, organism-based, SD; design: dose 0.6 mg.Kg-1, dosed compound id 2.46809e+06, dosed compound name Idarubicin, dose level Intermediate, gender Mixed, regimen Once per week, route intravenous, sampling time 8-22 Week, study doses 0/0.3/0.6/1 mg.Kg-1; details: in vivo
[10] = (§2) Decrease in leukocytes observed following intravenous idarubicin at 0.6 mg.Kg-1 per week in rat; assay type: toxicity, organism-based, SD, Blood; design: dosed compound id 2.46809e+06, dosed compound name Idarubicin, dose level Intermediate, gender Mixed, route intravenous, sampling time 8 Week, study doses 0/0.3/0.6/1 mg.Kg-1; details: in vivo
[11] = as §2; assay type: toxicity, organism-based, SD, Blood; design: dose 0.6 mg.Kg-1, dosed compound id 2.46809e+06, dosed compound name Idarubicin, dose level Intermediate, gender Mixed, regimen Once per week, route intravenous, sampling time 4 Week, study doses 0/0.3/0.6/1 mg.Kg-1; details: in vivo
[12] = Decrease in albumin due to persistent proteinuria following intravenous idarubicin at 0.3 mg.Kg-1 per week in rat; assay type: toxicity, organism-based, SD, Serum; design: dose 0.3 mg.Kg-1, dosed compound id 2.46809e+06, dosed compound name Idarubicin, dose level Low, gender Mixed, regimen Once per week, route intravenous, sampling time 36 Week, study doses 0/0.3/0.6/1 mg.Kg-1; details: in vivo
[13] = Increase in serum phospholipid level following intravenous idarubicin at 0.3 mg.Kg-1 per week in rat; assay type: toxicity, organism-based, SD; design: dose 0.3 mg.Kg-1, dosed compound id 2.46809e+06, dosed compound name Idarubicin, dose level Low, gender Mixed, regimen Once per week, route intravenous, sampling time 8-22 Week, study doses 0/0.3/0.6/1 mg.Kg-1; details: in vivo
[14] = Terminal half-life of 4-dem-daunorubicin following intravenous 4-dem-daunorubicin at 1.0 mg.Kg-1 dose in dog; assay type: ADME, organism-based, Canis lupus familiaris; design: dose 1 mg.Kg-1, dosed compound id 2.46809e+06, dosed compound name Idarubicin, route intravenous; details: Beagle, plasma
[15] = Decrease in albumin due to persistent proteinuria following intravenous idarubicin at 0.6 mg.Kg-1 per week in rat; assay type: toxicity, organism-based, SD, Serum; design: dose 0.6 mg.Kg-1, dosed compound id 2.46809e+06, dosed compound name Idarubicin, dose level Intermediate, gender Mixed, regimen Once per week, route intravenous, sampling time 36 Week, study doses 0/0.3/0.6/1 mg.Kg-1; details: in vivo
[16] = Increase in serum triglycerides level following intravenous idarubicin at 0.6 mg.Kg-1 per week in rat; assay type: toxicity, organism-based, SD; design: dose 0.6 mg.Kg-1, dosed compound id 2.46809e+06, dosed compound name Idarubicin, dose level Intermediate, gender Mixed, regimen Once per week, route intravenous, sampling time 8-22 Week, study doses 0/0.3/0.6/1 mg.Kg-1; details: in vivo
[17] = Incidence of persistent proteinuria following intravenous idarubicin at 0.6 mg.Kg-1 per week in rat; assay type: toxicity, organism-based, SD; design: dose 0.6 mg.Kg-1, dosed compound id 2.46809e+06, dosed compound name Idarubicin, dose level Intermediate, gender Mixed, regimen Once per week, route intravenous, sampling time 36 Week, study doses 0/0.3/0.6/1 mg.Kg-1; details: in vivo
[18] = Increase in serum phospholipid level following intravenous idarubicin at 0.6 mg.Kg-1 per week in rat; assay type: toxicity, organism-based, SD; design: dose 0.6 mg.Kg-1, dosed compound id 2.46809e+06, dosed compound name Idarubicin, dose level Intermediate, gender Mixed, regimen Once per week, route intravenous, sampling time 8-22 Week, study doses 0/0.3/0.6/1 mg.Kg-1; details: in vivo
[19] = as §1; assay type: toxicity, organism-based, SD, Blood; design: dose 0.3 mg.Kg-1, dosed compound id 2.46809e+06, dosed compound name Idarubicin, dose level Low, gender Mixed, regimen Once per week, route intravenous, sampling time 8 Week, study doses 0/0.3/0.6/1 mg.Kg-1; details: in vivo
[20] = Incidence of leukocyturia following intravenous idarubicin at 0.6 mg.Kg-1 per week in rat; assay type: toxicity, organism-based, SD; design: dose 0.6 mg.Kg-1, dosed compound id 2.46809e+06, dosed compound name Idarubicin, dose level Intermediate, gender Mixed, regimen Once per week, route intravenous, sampling time 36 Week, study doses 0/0.3/0.6/1 mg.Kg-1; details: in vivo

CC(=O)[C@]1(O)Cc2c(O)c3c(c(O)c2[C@@H](O[C@H]2C[C@H](N)[C@H](O)[C@H](C)O2)C1)C(=O)c1ccccc1C3=O [IDARUBICIN]
CHOL_CHANGE [1]: OUTCOME = Increased
Mortality [2]: OUTCOME = Observed, N_AFFECTED = 12
Incidence [3]: OUTCOME = Observed
clearance [4]: 711 mL/min
WBC_CHANGE [5]: 35%
Vd [6]: 34.5 L/kg
Incidence [7]: OUTCOME = Observed
TRIG_CHANGE [8]: OUTCOME = Increased
CHOL_CHANGE [9]: OUTCOME = Increased
WBC_CHANGE [10]: 55%
WBC_CHANGE [11]: 50%
ALB_CHANGE [12]: OUTCOME = Decreased
PHOSLPD_CHANGE [13]: OUTCOME = Increased
half-life [14]: 6 min
ALB_CHANGE [15]: OUTCOME = Decreased
TRIG_CHANGE [16]: OUTCOME = Increased
Incidence [17]: OUTCOME = Observed
PHOSLPD_CHANGE [18]: OUTCOME = Increased
WBC_CHANGE [19]: 35%
Incidence [20]: OUTCOME = Observed
